Experiments:
[1] = system: Human endothelial cell line EA.hy926; test: High-glucose endothelium damage, immunoblotting detection of VE-cadherin; assay type: cell-based; settings: 2 nM and 20 nM SkQ1 pre-incubation 4 d; 45 mM D-glucose 2 d; vs vehicle control
Text: Human endothelial cell line EA.hy926 (ATCC Collection; catalog number CRL-2922) was used as a model of the endothelium vessel damage occurring during inflammatory process and/or diabetes. This cell line is similar to primary HUVEC cell line (Edgell et al. (1983) PNAS, 80(12):3734-7; Edgell et al. (1990) In Vitro Cell Dev. Biol., 26(12):1167-72) and widely used as a relevant model for inflammation studies (Riesbeck et al. (1998) Clin. Vaccine Immunol., 5:5675-682).
Accordingly, human endothelial cells EA.hy926 were pre-incubated with 2 nM and 20 nM of SkQ1 solution in Dulbecco's Modified Eagle's Medium (DMEM) supplemented with 10% of fetal serum (Example 1) for 4 d. Cells were then incubated 2 d with DMEM medium containing 1% FBS and 5 mM D-glucose. The cells were then incubated 2 d with 45 mM D-glucose and were then used for immunoblotting detection of VE-cadherin.

Human neutrophils = test: f-MLP-stimulated neutrophil MMP-9 release by zymography; assay type: cell-based; settings: 0.2 nM, 2 nM, and 200 nM; 1.5 hr pre-incubation; 1 nM f-MLP 30 min; vs vehicle control
Experimental: Human neutrophils were isolated from anticoagulated blood of healthy donors. Neutrophils were pre-incubated with 0.2 nM, 2 nM, 20 nM, 200 nM, and 500 nM SkQ1 solution in RPMI-1640 medium supplemented with 10% fetal serum for 1.5 hr at 37° C. in 5% CO2. The cells were then stimulated with 1 nM N-formyl-methionine-leucine-phenylalanine (f-MLP) for 30 min. The supernatants from the cells were used to detect MMP-9 activity by zymography analysis (MMP-9 release was used to estimate tissue damage). The data from this assay was shown as means at least for 3 separate experiments.

[2] = system: Wistar rats with experimental hepatitis; test: D-galactosamin-induced experimental hepatitis; assay type: in vivo, rat; settings: 7 d before induction, control median 2
Experimental: Experimental hepatitis was induced in 8-10 weeks old Wistar rats weighing […] by intraperitoneal injection of 500 mg/kg D-galactosamin in 0.9% NaCl. SkQ1 was administered by gavage in aqueous solution at doses of 10 nmol/kg/day, 50 nmol/kg/day, 250 nmol/kg/day, and 1250 nmol/kg/day starting 7 d before induction of hepatitis and ending at the day of induction. The animals were sacrificed 24 hrs after the induction of hepatitis. Inflammation score was estimated for each animal on a 3-point scale by blind examination of hematoxylin-eosin stained liver sections.

[3] = system: Wistar rats with acute pancreatitis; test: Arginine-induced acute pancreatitis model; assay type: in vivo, rat; settings: for MPO activity in pancreatic tissue homogenates: control 52.9, intact 6.1
Experimental: Kidney homogenates for MPO determination were centrifuged at 20000 g 15 min, the pellets were resuspended in 50 mM K-phosphate buffer containing 0.5% CTAB. Resulted samples were frozen and thawed three times and then centrifuged at 10600 g 10 min. Supernatants were analyzed for MPO activity in chromogenic reaction with o-phenylenediamine (OPD). 100 μl sample was mixed with 100 μl substrate buffer (25 mM Na-citrate, 50 mM Na-phosphate, 0.45 mg/ml OPD, 0.1% H2O2, pH 5.0) and was incubated 15 min at room temperature and then OD was detected at 492 nm.
42 Wistar rats (age: 20-25 week, weight 400 g-750 g) were distributed among 4 experiemntal groups with the same average weight. SkQ1 was administered with drinking water with an estimated dosage of 250 nmoles/kg/day or 50 nmoles/kg/day. Acute pancreatitis was induced by a single intraperitoneal (ip) injection of arginine (100 mg/100 g of animal weight; 20% arginine solution in about 2.5 ml phosphate buffer).
The experimental groups were: (1) Intact (n=10); (2) Control (n=10) treated with arginine ip injection; (3) SkQ250-SkQ1 pretreatment with 250 nmoles/kg/day dosage for 9 days; IP injection of arginine on day 9, continuation of SkQ1 treatment for 24 hr (n=10); and (4) SkQ50-SkQ1 pretreatment with 50 nmoles/kg/day dosage for 9 days. IP injection of arginine on day 9, continuation of SkQ1 treatment for 24 hr (n=10).
The activity of pancreatic myeloperoxidase (MPO) was also measured as described in Example 1 (for kidney tissue).
Samples of pancreas were fixed in 10% formalin and then prepared for eosin-hematoxylin staining of 5 μm-6 μm slices using standard techniques. Stained samples (slices) were examined under light microscopy.
The intensity of inflammation in the samples was measured by a standard ascending scale score from 0 to 3. The average score of inflammation in rats without SkQ treatment was 1.5.

SMILES: CC1=C(C)C(=O)C(CCCCCCCCCC[P+](c2ccccc2)(c2ccccc2)c2ccccc2)=CC1=O [SkQ1, 10-(6-plastoquinonyl)decyl-triphenylphosphonium]
- VE-cadherin downregulation induced by high glucose [1]: prevents
- neutrophil-MMP-9 activation induced by f-MLP (Human neutrophils): prevented
- inflammation score (3-point scale, liver sections) ([2]; 50 nmol/kg/day by gavage, p<0.01): 1.5
- inflammation score (median, 3-point scale, liver sections) ([2]; 1250 nmol/kg/day by gavage, p<0.001): 1
- MPO activity in pancreatic tissue homogenates ([3]; SkQ50: 50 nmoles/kg/day for 9 days + 24 hr): 50.0
- Average inflammation score (pancreas histology, scale 0 to 3) ([3]; SkQ50: 50 nmoles/kg/day, untreated pancreatitis 1.5): 1.5
- MPO activity in pancreatic tissue homogenates ([3]; SkQ250: 250 nmoles/kg/day for 9 days + 24 hr): 15.8
- weight of the pancreas (edema) ([3]; both dosages (250 and 50 nmoles/kg/day in drinking water)): prevented an increase
